The structures appear in SMILES notation. Where only a bound is given, the exact number is not on record here.

The subject of the first assay is σ1 receptor and the μ-opiod receptor. The experiment in a line: μ and σ1 dual binding: combined class from the Ki of both radioligand assays. More on the design: species or system human; key to μ and σ1 dual binding: +: Both Ki-μ and Ki-σ1>=500 nM; ++: One Ki<500 nM while the other Ki is >=500 nM; +++: Both Ki-μ and Ki-σ1<500 nM; ++++: Both Ki-μ and Ki-σ1<100 nM. The note with it: combined class for Ki-μ and Ki-σ1; transfected HEK-293 membranes (σ1), transfected CHO-K1 cell membranes (μ). The gist of the method:
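Classes combine both Ki values, split at 500 nM and 100 nM. Human μ-opioid binding used 1 nM [3H]-DAMGO on CHO-K1 membranes (27 °C, 60 min, pH 7.4, naloxone 10 μM for NSB); human σ1 used 5 nM [3H](+)-pentazocine on HEK-293 membranes (37 °C, 120 min, pH 8, haloperidol 10 μM for NSB).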
As for `Oc1cccc(C2CCN(Cc3cn(Cc4ncccc4O)nn3)CC2)c1` [Example 156, 2-((4-((4-(3-hydroxyphenyl)piperidin-1-yl)methyl)-1H-1,2,3-triazol-1-yl)methyl)pyridin-3-ol], the “μ and σ1 dual binding” value is “++”.
For `COc1cccnc1Cn1cc(CN2CCC(c3cccc(O)c3)CC2)nn1` [Example 158, 3-(1-((1-((3-methoxypyridin-2-yl)methyl)-1H-1,2,3-triazol-4-yl)methyl)piperidin-4-yl)phenol], the “μ and σ1 dual binding” value was “++”.
On to `CS(=O)(=O)Nc1cccc(C2CCN(Cc3cnn([C@@H]4c5ccccc5C[C@H]4O)c3)CC2)c1` [Example 166, N-(3-(1-((1-((1R,2R)-2-hydroxy-2,3-dihydro-1H-inden-1-yl)-1H-pyrazol-4-yl)methyl)piperidin-4-yl)phenyl)methanesulfonamide], for which the “μ and σ1 dual binding” value is “++”.
On to `CC(C)S(=O)(=O)Nc1cccc([C@@H]2CCN(Cc3cnn(-c4ccccn4)c3)C[C@@H]2O)c1` [Example 169, N-(3-((3R,4S)-3-hydroxy-1-((1-(pyridin-2-yl)-1H-pyrazol-4-yl)methyl)piperidin-4-yl)phenyl)propane-2-sulfonamide], for which the “μ and σ1 dual binding” value is “++”.

Staying with this assay, now noted: transfected HEK-293 membranes (σ1), transfected CHO-K1 cell membranes (μ).
On to `Oc1cccc(C2CCN(Cc3cn(-c4ccccc4F)nn3)CC2)c1` [Example 142, 3-(1-((1-(2-fluorophenyl)-1H-1,2,3-triazol-4-yl)methyl)piperidin-4-yl)phenol], for which the Ki range for both μ and σ1 (dual-binding class) is less than 100 nM.
For the molecule `Oc1cccc(C2CCN(Cc3cn(-c4ccc(F)cn4)nn3)CC2)c1` [Example 143, 3-(1-((1-(5-fluoropyridin-2-yl)-1H-1,2,3-triazol-4-yl)methyl)piperidin-4-yl)phenol], the Ki range for both μ and σ1 (dual-binding class) is less than 100 nM.
As for `Oc1cccc(C2CCN(Cc3cn(Cc4ncccc4Cl)nn3)CC2)c1` [Example 144, 3-(1-((1-((3-chloropyridin-2-yl)methyl)-1H-1,2,3-triazol-4-yl)methyl)piperidin-4-yl)phenol], the Ki range for both μ and σ1 (dual-binding class) is less than 500 nM.
`Oc1cccc(C2CCN(Cc3cn(Cc4cccnc4)nn3)CC2)c1` [Example 145, 3-(1-((1-(pyridin-3-ylmethyl)-1H-1,2,3-triazol-4-yl)methyl)piperidin-4-yl)phenol]: the Ki range for both μ and σ1 (dual-binding class) is less than 500 nM.
For `Oc1cccc(C2CCN(Cc3cn(-c4c(F)cccc4F)nn3)CC2)c1` [Example 146, 3-(1-((1-(2,6-difluorophenyl)-1H-1,2,3-triazol-4-yl)methyl)piperidin-4-yl)phenol], the Ki range for both μ and σ1 (dual-binding class) is less than 100 nM.
`Oc1cccc(C2CCN(Cc3cn(-c4ccc(F)c(F)c4)nn3)CC2)c1` [Example 147, 3-(1-((1-(3,4-difluorophenyl)-1H-1,2,3-triazol-4-yl)methyl)piperidin-4-yl)phenol]: the Ki range for both μ and σ1 (dual-binding class) is less than 100 nM.
Same read-out and setting: next, `Oc1cccc(C2CCN(Cc3cn(-c4ccc(Cl)cn4)nn3)CC2)c1` [Example 148, 3-(1-((1-(5-chloropyridin-2-yl)-1H-1,2,3-triazol-4-yl)methyl)piperidin-4-yl)phenol]: less than 100 nM; `Oc1cccc(C2CCN(Cc3cn(Cc4ncccc4C(F)(F)F)nn3)CC2)c1` [Example 151, 3-(1-((1-((3-(trifluoromethyl)pyridin-2-yl)methyl)-1H-1,2,3-triazol-4-yl)methyl)piperidin-4-yl)phenol]: less than 500 nM; `Oc1cccc(C2CCN(Cc3cn(Cc4ccc(C(F)(F)F)cn4)nn3)CC2)c1` [Example 152]: less than 100 nM.
With `Oc1cccc(C2CCN(Cc3cn(Cc4ccc(Cl)cn4)nn3)CC2)c1` [Example 153, 3-(1-((1-((5-chloropyridin-2-yl)methyl)-1H-1,2,3-triazol-4-yl)methyl)piperidin-4-yl)phenol], the Ki range for both μ and σ1 (dual-binding class) was less than 100 nM.
The same measure, in the same setting: next, `Oc1cccc(C2CCN(Cc3cn(-c4ncccc4F)nn3)CC2)c1` [Example 154, 3-(1-((1-(3-fluoropyridin-2-yl)-1H-1,2,3-triazol-4-yl)methyl)piperidin-4-yl)phenol]: less than 500 nM; `Oc1cccc(C2CCN(Cc3cn(-c4ccc(F)cc4F)nn3)CC2)c1` [Example 155, 3-(1-((1-(2,4-difluorophenyl)-1H-1,2,3-triazol-4-yl)methyl)piperidin-4-yl)phenol]: less than 100 nM.
Turning to `Oc1cccc(C2CCN(Cc3cn(-c4cc(C(F)(F)F)ccn4)nn3)CC2)c1` [Example 157, 3-(1-((1-(4-(trifluoromethyl)pyridin-2-yl)-1H-1,2,3-triazol-4-yl)methyl)piperidin-4-yl)phenol], the Ki range for both μ and σ1 (dual-binding class) is less than 500 nM.
On to `Oc1ccc(Cn2cc(CN3CCC(c4cccc(O)c4)CC3)nn2)nc1` [Example 159, 6-((4-((4-(3-hydroxyphenyl)piperidin-1-yl)methyl)-1H-1,2,3-triazol-1-yl)methyl)pyridin-3-ol], for which the Ki range for both μ and σ1 (dual-binding class) was not below 500 nM.
As for `Oc1cccc(C2CCN(Cc3cn(Cc4cc(C(F)(F)F)ccn4)nn3)CC2)c1` [Example 160, 3-(1-((1-((4-(trifluoromethyl)pyridin-2-yl)methyl)-1H-1,2,3-triazol-4-yl)methyl)piperidin-4-yl)phenol], the Ki range for both μ and σ1 (dual-binding class) was less than 100 nM.
Consider `Oc1cccc(C2CCN(Cc3cn(-c4ncccc4Cl)nn3)CC2)c1` [Example 161, 3-(1-((1-(3-chloropyridin-2-yl)-1H-1,2,3-triazol-4-yl)methyl)piperidin-4-yl)phenol], for which the Ki range for both μ and σ1 (dual-binding class) was less than 500 nM.
Regarding `Oc1cccc(C2CCN(CCc3cn(-c4ccccc4)nn3)CC2)c1` [Example 162, 3-(1-(2-(1-phenyl-1H-1,2,3-triazol-4-yl)ethyl)piperidin-4-yl)phenol], the Ki range for both μ and σ1 (dual-binding class) is less than 100 nM.
`CS(=O)(=O)Nc1cccc(C2CCN(Cc3cnn(-c4ccccc4)c3)CC2)c1` [Example 163, N-(3-(1-((1-phenyl-1H-pyrazol-4-yl)methyl)piperidin-4-yl)phenyl)methanesulfonamide]: the Ki range for both μ and σ1 (dual-binding class) was less than 100 nM.
As to `Oc1cccc(C2CCN(Cc3cnn(-c4ccccc4)c3)CC2)c1` [Example 164, 3-(1-((1-phenyl-1H-pyrazol-4-yl)methyl)piperidin-4-yl)phenol], the Ki range for both μ and σ1 (dual-binding class) was less than 100 nM.
Consider `CS(=O)(=O)Nc1cccc([C@@H]2CCN(Cc3cnn(-c4ccccc4)c3)C[C@@H]2O)c1` [Example 165, N-(3-((3R,4S)-3-hydroxy-1-((1-phenyl-1H-pyrazol-4-yl)methyl)piperidin-4-yl)phenyl)methanesulfonamide], for which the Ki range for both μ and σ1 (dual-binding class) is less than 500 nM.
The same measure, in the same setting: next, `CC(C)S(=O)(=O)Nc1cccc(C2CCN(Cc3cnn(Cc4ccccn4)c3)CC2)c1` [Example 167, N-(3-(1-((1-(pyridin-2-ylmethyl)-1H-pyrazol-4-yl)methyl)piperidin-4-yl)phenyl)propane-2-sulfonamide]: less than 500 nM.
Consider `CC(C)S(=O)(=O)Nc1cccc(C2CCN(Cc3cnn(Cc4cccc(F)n4)c3)CC2)c1` [Example 170, N-(3-(1-((1-((6-fluoropyridin-2-yl)methyl)-1H-pyrazol-4-yl)methyl)piperidin-4-yl)phenyl)propane-2-sulfonamide], for which the Ki range for both μ and σ1 (dual-binding class) is less than 100 nM.

The values are drawn from US9981942B2, “Piperidine derivatives having multimodal activity against pain” (LABORATORIOS DEL DR. ESTEVE S.A., priority 2013, dated 2018).
